According to paper PMC4038554, “Human CD4^+ T Cell Responses to the Dog Major Allergen Can f 1 and Its Human Homologue Tear Lipocalin Resemble Each Other” (PLoS ONE, 2014):
Where “and” joins values, the source holds several entries; their conditions need not be identical. Equal entries are not always repeated.

Tests used:
DRB3 = assay: HLA class II peptide-binding assay (competitive ELISA); set-up: species or system human
DRB4 = assay: as above; set-up: species or system human
DRB5 = assay: as above; set-up: species or system human
[1] = test system: CD25-depleted PBMCs (CD4+ T cells); assay: Generation of peptide-specific CD4+ T cell lines with the split-well method (frequency of specific TCLs); format: cell-based, human; conditions: for estimated average precursor frequency of peptide-specific T cells: estimated from TCL frequencies, assuming 30% CD4+ T cells in PBMCs; for positive specific TCLs out of 30 replicate wells per subject: peptides at 2 µM, 10^5 PBMCs per well, mean±SEM, SEM
Protocol: After isolating peripheral-blood mononuclear cells (PBMCs) by Ficoll-Paque Plus density gradient centrifugation (GE Healthcare Biosciences, Uppsala, Sweden), CD4^+CD25high regulatory T cells were depleted with anti-CD25-magnetic beads (Miltenyi Biotec, Bergisch Gladbach, Germany), to enhance the induction of both autoreactive and allergen-reactive CD4^+ T cell responses, as previously described, [34].The CD25-depleted PBMCs were seeded in 96-well U-bottomed plates (Corning Incorporated, Corning, USA; 10^5 PBMCs per well) in the presence of pooled Can f 1 or TL peptides (each peptide at 2 µM, 30 wells per a peptide pool), or the HA peptide (30 wells) in a 150 µl volume of RPMI 1640 culture medium supplemented with 2 mM L-glutamine, 20 µM 2-mercaptoethanol, 1 mM sodium pyruvate, nonessential amino acids, 100 IU/ml penicillin, 100 µg/ml streptomycin, 10 mM HEPES (all from Lonza, Verviers, Belgium) and 5% inactivated human AB serum (Sigma-Aldrich, St. Louis, MO). On day 5, 50 µl of fresh medium supplemented with 10 IU/ml of IL-2 (Strathmann Biotech, Hannover, Germany) was added to the cultures. On day 7, half of the culture medium was replaced without IL-2. On day 10, half of the cells in the cultures were split into daughter plates for testing specificity by stimulating the cells with or without the pooled peptides (each peptide at 2 µM) together with autologous γ-irradiated (3000 rad) PBMCs (5×10^5) as antigen-presenting cells. After an incubation of 72 h, [3H]thymidine was added (1 µCi per well; GE Healthcare, Little Chalfont, UK), and after an additional 16 h, the cells were harvested onto glass fiber filters on day 14 (Wallac, Turku, Finland). Radioactivity was measured by scintillation counting (Wallac Micro Beta 1540) and the results were expressed as counts per minute (CPM). The stimulation indices (SI; CPM in the presence of antigen divided by CPM in the absence of antigen) and CPM differences between stimulated and unstimulated wells (ΔCPM) were determined. On the same day, positive cultures (ΔCPM>2000 and SI>2) were restimulated in 48-well plates with autologous γ-irradiated PBMCs (10^6/well), 2 µM of the peptides and 25 IU/ml of IL-2. On day 28, the established TCLs were propagated once more with peptides, IL-2 and PBMCs. After stimulations, half of the culture medium was replaced with fresh medium supplemented with IL-2 every 2–3 days. The peptide specificity of TCLs was defined as described below.
T cell proliferation assays were set in duplicates in 96-well U-bottomed plates with 2.5×10^4 cultured T cells, 5×10^4 autologous γ-irradiated (3000 rad) PBMCs as APCs, and antigens as indicated. In order to determine the epitope specificity of the established TCLs induced with peptide pools, the T cell lines were tested with each of the three individual peptides in the pool at 10 µM on day 28. Proliferation was measured by radionuclide uptake (see above). […] On day 42, peptide-specific TCLs were tested with individual Can f 1 peptides, as well as their TL homologues, at several concentrations up to 10 µM. The functional T cell receptor (TCR) avidities of the TCLs for a peptide were assessed by determining effective concentration 50 (EC50) values (i.e., the concentration of a peptide needed to induce a half-maximal proliferative response) from the dose-response curves of individual TCLs.

[2] = test system: peptide-specific CD4+ T cell lines; assay: Proliferation assay, functional TCR avidity (EC50) of peptide-specific TCLs; format: cell-based, human

## PKYVKQNTLKLAT [HA, influenza hemagglutinin (HA) peptide (amino acids 306–318), viral control peptide, reference compound]
DRB3
  relative binding ratio (IC50 of the test peptide divided by IC50 of the reference peptide): > 167
DRB4
  relative binding ratio (IC50 of the test peptide divided by IC50 of the reference peptide): > 1 179
DRB5
  relative binding ratio (IC50 of the test peptide divided by IC50 of the reference peptide): 1
[1]; allergic subjects
  estimated average precursor frequency of peptide-specific T cells: 4.2 per 10^6 CD4^+ T cells
  positive specific TCLs out of 30 replicate wells per subject: 12.68±10.98%
[1]; nonallergic subjects
  estimated average precursor frequency of peptide-specific T cells: 2.9 per 10^6 CD4^+ T cells
  positive specific TCLs out of 30 replicate wells per subject: 8.60±13.37%
[2]
  percentage of high-avidity (EC50<0.1 µM) TCLs: 25.0% and 22.6%
